Columns and labels:
ATDC5 cells = experiment: Chondrogenesis activity assay in ATDC5 cells (collagen type II induction, immunofluorescence); assay type: cell-based, mouse; settings: Mus musculus; for EC50: collagen type II induction in ATDC5 cells, concentration reaching 50% of maximum induction; for Emax: maximum percent induction of collagen type II relative to internal reference compound at 10 μM, ATDC5 cells
Procedure, shortened: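 Mouse ATDC5 cells in insulin (10 μg/ml)-containing DMEM/F12 differentiation medium with 5% FCS were exposed to compound, typically 40 nM–10 μM at 0.1% DMSO, for 4 days at 37 °C. Intracellular collagen type II was quantified by Alexa Fluor 488 immunostaining with high-content imaging, relative to DMSO and a 10 μM reference compound.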

[1] = test system: primary human chondrocyte pellet cultures; experiment: Chondrogenesis activity assay in primary human chondrocyte pellet cultures (proteoglycan (aggrecan) induction, Blyscan assay); assay type: cell-based; settings: for EC50: 336 h, proteoglycan (aggrecan) induction, primary human chondrocyte pellets, 2 weeks culture; for Emax: Homo sapiens, Chondrocyte, maximum percent proteoglycan (aggrecan) induction relative to the internal reference compound at 10 μM
Experimental: B) Chondrogenesis Activity Assay in Primary Human Chondrocyte Pellet Cultures
In this assay human articular chondrocytes are harvested by enzymatic digestion from articular cartilage and passaged several times to dedifferentiate the chondrocytes and to propagate the cells. Cells are cultured as cell pellets in the presence of the compounds of the invention over 2 weeks, and the chondrogenic differentiation is quantified by the production of the chondrogenic marker aggrecan (proteoglycan).
In detail, primary chondrocytes were harvested by enzymatic digestion from cartilage of osteoarthritis patients undergoing knee joint replacement surgery, and cultured in vitro. Cells were passaged one or two times and aliquots were cryopreserved. To initiate chondrogenesis experiments, cell aliquots were thawn, cultured in Chondrocyte Growth Medium (CGM, Lonza, #CC-3216) and passaged twice to further propagate and dedifferentiate cells. Pellet cultures were initiated by seeding 2.5×10E5 cells per well into a 96-well deep well plate in 600 μl chondrocyte differentiation medium consisting of Dulbecco's Modified Eagle Medium (DMEM, Invitrogen, #41966), 1×ITS-solution (Insulin/Transferrin/sodium selenite; 100× solution: Invitrogen, #51500056), 5 μg/mL linoleic acid (Sigma, #L1012-1G), 1× nonessential amino acids (100× solution: Invitrogen, #11140); 10 nM Dexamethasone, 2 ng/ml TGF-β1 (transforming growth factor β1) and 10 μg/ml ascorbic acid. Cells were spun to pellets by centrifugation (10 min, 400×g). Test compounds dissolved in DMSO were added to yield increasing compound concentrations, typically from 40 nM to 10 μM, and a final DMSO concentration of 0.1%, and the cell pellets cultured at 37° C., and 5% CO2 for 2 weeks. On each 96-well plate, control wells containing no test compound but the same concentration of DMSO, i.e. untreated cells, were included and used as reference for the determination of the effect of the test compounds on the cells, and wells containing an internal reference compound at a concentration of 10 μM were included and used as positive control and for standardizing the results. Chondrocyte differentiation medium and the compounds were exchanged twice weekly until harvest of the pellets.
For harvest of the pellets, medium was removed and the pellet was homogenized by enzymatic digestion. 100 μl of protease solution containing 0.4 mg/ml papain, 50 mM sodium phosphate, 4 mM EDTA and 0.48 mg/ml L-cysteine was added to the pellet in each well of a 96-well plate, the plate was sealed with a plate sealer foil (SILVERseal, Greiner Bio-One) and incubated for 4 to 6 hours at 65° C. with agitation.
The concentration of proteoglycan (aggrecan) was determined by quantification of the sulfated glycosaminoglycan side chains of aggrecan using the Blyscan assay (Kit from Biocolor). Aliquots of the papain-digest were transferred to 400 μl of Blyscan dye solution and incubated at room temperature for 45 min with agitation (1200 rpm). The mixture was centrifuged at 3760×g for 45 min, the supernatant was discarded, and the stained pellet was redissolved in 400 μl of Blyscan dissociation reagent by rotation until the precipitate completely resolved. Optical density was measured at 656 nm using a Tecan Saphire2 instrument, and the amount of proteoglycan determined against a standard curve with chondroitin-4-sulfate.
Induction of proteoglycan (aggrecan) was calculated for each compound concentration relative to the control (untreated cells, i.e. no test compound added), and an EC50 value (effective concentration 50 (in μM (micromollliter)), i.e. the compound concentration at which the effect of the compound on proteoglycan (aggrecan) induction reaches 50% of the maximum induction) was calculated using a sigmoidal signal fit procedure. […]

Structure (SMILES)	EC50 (ATDC5 cells) [nM]	Emax (ATDC5 cells) [%]	EC50 [1] [nM]	Emax [1] [%]
FC(F)(F)Cn1c2cnccc2c2cc(Cl)cc(-c3cnn(-c4ccccc4)c3)c21 [Example 11, 6-Chloro-8-(1-phenyl-1H-pyrazol-4-yl)-9-(2,2,2-trifluoroethyl)-9H-pyrido[3,4-b]indole]	3900	50 to 80	7900	40 to 100
CCn1c2c(-c3ccnn3C)cc(Cl)cc2c2ccnc(C)c21 [Example 19, 6-Chloro-9-ethyl-1-methyl-8-(2-methyl-2H-pyrazol-3-yl)-9H-pyrido[3,4-b]indole]	> 10000	50 to 80	6900	40 to 100
Cc1nccc2c1[nH]c1c(-c3cccc(OCc4ccc(C(F)(F)F)o4)c3)cc(Cl)cc12 [Example 277, 6-Chloro-1-methyl-8-[3-(5-trifluoromethyl-furan-2-ylmethoxy)-phenyl]-9H-pyrido[3,4-b]indole]	> 3300	< 20		
Cc1nccc2c1[nH]c1c(-c3ccc(OCC4COc5ccccc5O4)cc3)cc(Cl)cc12 (stereo not drawn) [Example 278, 6-Chloro-8-[4-(2,3-dihydro-benzo[1,4]dioxin-2-ylmethoxy)-phenyl]-1-methyl-9H-pyrido[3,4-b]indole]	> 3300	20 to 50		
Clc1cc(-c2ccc(Cl)nc2)c2c(c1)c1ccncc1n2CC1CCC1 [Example 279, 6-Chloro-8-(6-chloro-pyridin-3-yl)-9-cyclobutylmethyl-9H-pyrido[3,4-b]indole]	1800	20 to 50		
Clc1cc(-c2cccnc2)c2c(c1)c1ccncc1n2CC1CC1 [Example 280, 6-Chloro-9-cyclopropylmethyl-8-pyridin-3-yl-9H-pyrido[3,4-b]indole]	> 10000	< 20		
Cc1nccc2c3cc(Cl)cc(-c4ccc(Cl)cc4Cl)c3n(CC3CC3)c12 [Example 282, 6-Chloro-9-cyclopropylmethyl-8-(2,4-dichloro-phenyl)-1-methyl-9H-pyrido[3,4-b]indole]	3600	< 20		
Cc1nccc2c3cc(Cl)cc(-c4cccnc4Cl)c3n(CC3CC3)c12 [Example 284, 6-Chloro-8-(2-chloro-pyridin-3-yl)-9-cyclopropylmethyl-1-methyl-9H-pyrido[3,4-b]indole]	4200	< 20		
Cc1nccc2c3cc(Cl)cc(-c4ccc(Cl)nc4Cl)c3n(CC3CC3)c12 [Example 285, 6-Chloro-9-cyclopropylmethyl-8-(2,6-dichloro-pyridin-3-yl)-1-methyl-9H-pyrido[3,4-b]indole]	6100	20 to 50		
Cc1nccc2c3cc(Cl)cc(-c4cnn(Cc5cccnc5)c4)c3n(CC3CC3)c12 [Example 290, 6-Chloro-9-cyclopropylmethyl-1-methyl-8-(1-pyridin-3-ylmethyl-1H-pyrazol-4-yl)-9H-pyrido[3,4-b]indole]	> 10000	20 to 50		
Clc1ccc(-c2cc(Cl)cc3c4ccncc4n(CC4CC4)c23)cc1 [Example 291, 6-Chloro-8-(4-chloro-phenyl)-9-cyclopropylmethyl-9H-pyrido[3,4-b]indole]	1700	50 to 80		
Cc1nccc2c3cc(Cl)cc(-c4ccccc4C(N)=O)c3n(CC3CC3)c12 [Example 292, 2-(6-Chloro-9-cyclopropylmethyl-1-methyl-9H-pyrido[3,4-b]indol-8-yl)-benzamide]	> 6600	< 20		
COc1ccc(-c2cc(Cl)cc3c4ccnc(C)c4n(CC4CC4)c23)cc1 [Example 293, 6-Chloro-9-cyclopropylmethyl-8-(4-methoxy-phenyl)-1-methyl-9H-pyrido[3,4-b]indole]	4500	50 to 80		
CN(C)c1ccc(-c2cc(Cl)cc3c4ccncc4n(CC4CC4)c23)c(Cl)n1 [Example 294, [6-Chloro-5-(6-chloro-9-cyclopropylmethyl-9H-pyrido[3,4-b]indol-8-yl)-pyridin-2-yl]-dimethyl-amine]	1200	> 80		

Now those with a lower EC50 (ATDC5 cells), led by results:

EC50 (ATDC5 cells) [nM]	Structure (SMILES)	Emax (ATDC5 cells) [%]	EC50 [1] [nM]	Emax [1] [%]
710	FC(F)(F)Cn1c2cnccc2c2cc(Cl)cc(-c3cnn(Cc4cccnc4)c3)c21 [Example 2, 6-Chloro-8-(1-(pyridin-3-ylmethyl)-1H-pyrazol-4-yl)-9-(2,2,2-trifluoroethyl)-9H-pyrido[3,4-b]indole]	> 80	4400	> 200
490	CCn1c2c(-c3cnn(Cc4cccnc4)c3)cc(Br)cc2c2ccnc(C)c21 [Example 5, 6-Bromo-9-ethyl-1-methyl-8-(1-pyridin-3-ylmethyl-1H-pyrazol-4-yl)-9H-pyrido[3,4-b]indole]	> 80	1300	> 200
120	Cc1nccc2c1[nH]c1c(-c3ccc(OCC4(C)COC4)cc3)cc(Cl)c(C)c12 [Example 8, 6-Chloro-1,5-dimethyl-8-[4-(3-methyl-oxetan-3-ylmethoxy)-phenyl]-9H-pyrido[3,4-b]indole]	> 80	260	100 to 200
690	OCCn1cc(-c2cc(Cl)cc3c4ccncc4n(CC(F)(F)F)c23)cn1 [Example 10, 2-(4-[6-Chloro-9-(2,2,2-trifluoroethyl)-9H-pyrido[3,4-b]indol-8-yl]pyrazol-1-yl)ethanol]	> 80	2400	40 to 100
120	Cc1nccc2c1[nH]c1c(-c3ccc(OCCn4cccn4)cc3)cc(Cl)cc12 [Example 13, 6-Chloro-1-methyl-8-[4-(2-(1H-pyrazol-1-yl)ethoxy)-phenyl]-9H-pyrido[3,4-b]indole]	> 80	1100	> 200
300	COc1cc(OC)nc(COc2ccc(-c3cc(Cl)cc4c3[nH]c3c(C)nccc34)cc2)n1 [Example 275, 6-Chloro-8-[4-(4,6-dimethoxy-pyrimidin-2-ylmethoxy)-phenyl]-1-methyl-9H-pyrido[3,4-b]indole]	> 80		
420	CCn1c2c(-c3cnn(CC4OCCO4)c3)cc(Cl)cc2c2ccnc(C)c21 [Example 276, 6-Chloro-8-(1-[1,3]dioxolan-2-ylmethyl-1H-pyrazol-4-yl)-9-ethyl-1-methyl-9H-pyrido[3,4-b]indole]	> 80		
110	Cc1nccc2c3cc(Cl)cc(-c4cncnc4)c3n(CC3CC3)c12 [Example 281, 6-Chloro-9-cyclopropylmethyl-1-methyl-8-pyrimidin-5-yl-9H-pyrido[3,4-b]indole]	< 20		
410	Cc1nccc2c3cc(Cl)cc(-c4cnccc4Cl)c3n(CC3CC3)c12 [Example 283, 6-Chloro-8-(4-chloro-pyridin-3-yl)-9-cyclopropylmethyl-1-methyl-9H-pyrido[3,4-b]indole]	< 20		
41	Cc1nccc2c3cc(Cl)cc(-c4cnc(N(C)C)nc4)c3n(CC3CC3)c12 [Example 286, [5-(6-Chloro-9-cyclopropylmethyl-1-methyl-9H-pyrido[3,4-b]indol-8-yl)-pyrimidin-2-yl]-dimethyl-amine]	< 20		
230	Cn1cc(-c2cc(Cl)cc3c4ccncc4n(CC4CC4)c23)cn1 [Example 287, 6-Chloro-9-cyclopropylmethyl-8-(1-methyl-1H-pyrazol-4-yl)-9H-pyrido[3,4-b]indole]	50 to 80		
750	COc1ccc(-c2cc(Cl)cc3c4ccncc4n(C4CC4)c23)cc1 [Example 289, 6-Chloro-9-cyclopropyl-8-(4-methoxy-phenyl)-9H-pyrido[3,4-b]indole]	> 80		

Reference: US12275733B2, “Substituted pyrido[3,4-b]indoles for the treatment of cartilage disorders” (Sanofi, priority 2016, dated 2025)
